Source: ChEMBL document CHEMBL1138376, “Identification of a series of highly potent activators of the Nurr1 signaling pathway” (Bioorg Med Chem Lett, 2007)

How the values were obtained:
[1] = target: T1, Nuclear receptor subfamily 4 group A member 2 (Homo sapiens, UniProt P43354); assay: Activation of Nurr1 expressed in MN9D cells by luciferase reporter gene assay; type: cell-based
[2] = target: T1, Nuclear receptor subfamily 4 group A member 2; assay: Activation of Nurr1 expressed in MN9D cells by luciferase reporter gene assay relative to control; type: cell-based; set-up: concentration or dose not given beside the values
[3] = Bioavailability in mouse at 10 umol/kg, po; type: ADME, organism-based; conditions: in vivo

T1 sequence (P43354 whole entry): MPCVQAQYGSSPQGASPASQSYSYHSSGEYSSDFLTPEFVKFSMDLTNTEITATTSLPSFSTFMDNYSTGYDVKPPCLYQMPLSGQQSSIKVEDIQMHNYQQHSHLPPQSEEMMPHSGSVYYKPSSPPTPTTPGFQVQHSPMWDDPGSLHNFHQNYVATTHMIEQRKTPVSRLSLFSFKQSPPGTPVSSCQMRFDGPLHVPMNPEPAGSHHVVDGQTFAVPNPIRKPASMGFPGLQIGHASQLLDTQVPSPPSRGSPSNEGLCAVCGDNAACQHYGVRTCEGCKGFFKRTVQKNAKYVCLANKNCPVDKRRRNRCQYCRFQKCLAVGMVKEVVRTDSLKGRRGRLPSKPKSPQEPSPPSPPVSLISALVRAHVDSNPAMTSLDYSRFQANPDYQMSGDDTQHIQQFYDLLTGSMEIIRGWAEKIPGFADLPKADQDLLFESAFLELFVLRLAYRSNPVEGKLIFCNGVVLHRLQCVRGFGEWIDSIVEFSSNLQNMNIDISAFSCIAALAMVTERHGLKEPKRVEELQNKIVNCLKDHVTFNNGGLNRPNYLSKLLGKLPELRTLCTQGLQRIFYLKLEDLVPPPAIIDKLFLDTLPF

Compound | EC50 [1] | Activity [2] | bioavailability [3]
Cn1c(-c2ccncc2)cc2onc(-c3ccccc3)c2c1=O | 0.13 µM | 198% | 
Cn1c(-c2ccc(Oc3ccccc3)cc2)cc2onc(-c3ccccc3)c2c1=O | > 2 µM |  | 
Cn1c(-c2ccc(COCCO)cc2)cc2onc(-c3ccccc3)c2c1=O | 0.0035 µM | 226% | 
CN1CCN(Cc2ccc(-c3cc4onc(-c5ccccc5)c4c(=O)n3C)cc2)CC1 | 0.0319 µM | 163% | 
CN(C)Cc1ccc(-c2cc3onc(-c4ccccc4)c3c(=O)n2C)cc1 | 0.026 µM | 171% | 
COc1ccc(-c2cc3onc(-c4ccccc4)c3c(=O)n2C)c(OC)c1 | 0.0592 µM | 202% | 
CC(C)OCCOCc1ccc(-c2cc3onc(-c4ccccc4)c3c(=O)n2C)cc1 | 0.113 µM | 173% | 
COCCOCc1ccc(-c2cc3onc(-c4ccccc4)c3c(=O)n2C)cc1 | 0.0039 µM | 208% | 95%
COc1ccc(-c2cc3onc(-c4ccccc4)c3c(=O)n2C)cc1 | 0.0041 µM | 185% | 
Cc1cc2onc(-c3ccccc3)c2c(=O)n1C | > 2 µM |  | 
O=c1[nH]c(-c2ccccc2)cc2onc(-c3ccccc3)c12 [ISOXAZOLOPYRIDINONE] | 0.0775 µM | 207% | 
Cn1c(-c2ccc3c(c2)OCO3)cc2onc(-c3ccccc3)c2c1=O | 0.0008 µM | 202% | 
